The supplement of paper PMC11061612

Tests used:
[1] = tested on: A4-Fuk (B-Lymphoblastic Leukemia); assay: Bliss excess, mean over the matrix (fraction); higher = more synergy
Procedure, shortened: (§1)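 Cell lines in DMEM/F12 or RPMI with 10% FBS were plated in 1536-well plates, held 24 hours at 37°C, 5% CO2, then given two-drug dose matrices for 72 hours (DMSO typically 0.2%). Viability was read by CellTiter-Glo 2.0 luminescence and scaled as inhibition from 0 (vehicle wells) to 1 (blank wells). Combination Emax is the second-highest inhibition in the matrix; Bliss excess is observed combination effect minus expected EA + EB − EA·EB, EA and EB being single-agent effects.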

[2] = tested on: COLO-668 (Small Cell Lung Carcinoma); assay: as above
Procedure, shortened: as §1

COLO-679 (Melanoma) = assay: as above
Procedure, shortened: as §1

[3] = tested on: HAL-01 (B-Lymphoblastic Leukemia); assay: as above
Procedure, shortened: as §1

[4] = tested on: ME-180 (Cervical Carcinoma); assay: as above
Procedure, shortened: as §1

[5] = tested on: ML-2 (Acute Myeloid Leukemia); assay: as above
Procedure, shortened: as §1

[6] = tested on: MV-4-11 (Acute Myeloid Leukemia); assay: as above
Procedure, shortened: as §1

[7] = tested on: SNU-387 (Hepatocellular Carcinoma); assay: as above
Procedure, shortened: as §1

[8] = tested on: SW982 (Other Solid Carcinomas); assay: as above
Procedure, shortened: as §1

[9] = tested on: ALL-SIL (T-Lymphoblastic Leukemia); assay: combination Emax (second highest fraction inhibited in the dose matrix, 72 h); higher = more inhibition; extreme values may be limits of the assay
Procedure, shortened: as §1

[10] = tested on: CADO-ES1 (Ewing's Sarcoma); assay: as above
Procedure, shortened: as §1

[11] = tested on: DU-145 (Prostate Carcinoma); assay: as above
Procedure, shortened: as §1

EW-1 (Ewing's Sarcoma) = assay: as above
Procedure, shortened: as §1

[12] = tested on: G-401 (Other Solid Carcinomas); assay: as above
Procedure, shortened: as §1

[13] = tested on: HCC1500 (Breast Carcinoma); assay: as above
Procedure, shortened: as §1

Hey (Ovarian Carcinoma) = assay: as above
Procedure, shortened: as §1

[14] = tested on: KOPN-8 (B-Lymphoblastic Leukemia); assay: as above
Procedure, shortened: as §1

[15] = tested on: NCI-H1092 (Small Cell Lung Carcinoma); assay: as above
Procedure, shortened: as §1

[16] = tested on: NCI-H650 (Lung Adenocarcinoma); assay: as above
Procedure, shortened: as §1

[17] = tested on: SK-LU-1 (Lung Adenocarcinoma); assay: as above
Procedure, shortened: as §1
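Throughout, for Bliss excess, mean over the matrix: after 72 h of two-drug dosing.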

| Structure (SMILES) | Bliss excess [1] | Bliss excess [2] | Bliss excess (COLO-679 (Melanoma)) | Bliss excess [3] | Bliss excess [4] | Bliss excess [5] | Bliss excess [6] | Bliss excess [7] | Bliss excess [8] | combination Emax [9] | combination Emax [10] | combination Emax [11] | combination Emax (EW-1 (Ewing's Sarcoma)) | combination Emax [12] | combination Emax [13] | combination Emax (Hey (Ovarian Carcinoma)) | combination Emax [14] | combination Emax [15] | combination Emax [16] | combination Emax [17] |
| --- | --- | --- | --- | --- | --- | --- | --- | --- | --- | --- | --- | --- | --- | --- | --- | --- | --- | --- | --- | --- |
| COc1cc2ncnc(Nc3ccc(F)c(Cl)c3)c2cc1OCCCN1CCOCC1 [Gefitinib] + CC(C)n1c(=O)n(C)c2cnc3cc(F)c(-c4ccc(OCCCN5CCCCC5)nc4)cc3c21 [AZD1390] (first compound max 10 µM, 7x7, partner max 0.3 µM) | -0.0704 | -0.0333 | -0.0901 | 0 | -0.0413 | -0.0237 | -0.0534 | -0.0714 | -0.0861 | 0.301 | 0.123 | 0.167 | 0.344 | 0.404 | 0.113 | 0.0522 | 0.241 | 0.0586 | 0.106 | 0.245 |
| C[C@@H](c1ccc2nccn2c1)n1nnc2ncc(-c3cnn(C)c3)nc21 [Savolitinib] + CC1(C)CCC(CN2CCN(c3ccc(C(=O)NS(=O)(=O)c4ccc(NCC5CCOCC5)c([N+](=O)[O-])c4)c(Oc4cnc5[nH]ccc5c4)c3)CC2)=C(c2ccc(Cl)cc2)C1 [Venetoclax] (first compound max 1 µM, 7x7, partner max 1 µM) | -0.0269 | -0.0624 | -0.0676 | -0.0387 | -0.084 | 0.0096 | 0.0246 | -0.106 | -0.046 | 0.675 | 0.695 | 0.101 | 0.112 | 0.104 | 0.629 | 0.0566 | 0.743 | 0.248 | 0.0996 | 0.273 |
| C[C@@H](c1ccc2nccn2c1)n1nnc2ncc(-c3cnn(C)c3)nc21 [Savolitinib] + Cc1c2c(nn1C)CSCc1cc(n(C)n1)CSc1cc(c3ccccc3c1)OCCCc1c(C(=O)O)n(C)c3c-2c(Cl)ccc13 [AZD5991] (first compound max 1 µM, 7x7, partner max 1 µM) | 0.0027 | -0.0417 | -0.0398 | 0.0173 | -0.0651 | -0.0082 | -0.034 | -0.0858 | -0.0647 | 0.264 | 0.346 | 0.132 | 0.2 | 0.295 | 0.428 | 0.127 | 0.844 | 0.46 | 0.2 | 0.329 |
